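96-well plates; 48 h exposure; 5 concentrations. Endpoints by linear interpolation between flanking doses. Not reached: highest tested concentration assigned. GI50 marks 50% less growth.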 Activity calls are given as the source filed them. Rule as the data show it: active = GI50 up to about 1.1 µM and inactive = higher.
Columns and labels:
Experiment in all cases: inhibition of tumour cell growth, NCI panel, 48 h
MDA-MB-231 = tested on: MDA-MB-231
UACC-257 = tested on: UACC-257
MDA-N = tested on: MDA-N
NCI-H23 = tested on: NCI-H23
UO-31 = tested on: UO-31
SNB-75 = tested on: SNB-75
HCC 2998 = tested on: HCC 2998
Malme-3M = tested on: Malme-3M
SK-MEL-28 = tested on: SK-MEL-28
HL-60 = tested on: HL-60
TK-10 = tested on: TK-10
M14 = tested on: M14
BT-549 = tested on: BT-549
RPMI-8226 = tested on: RPMI-8226
T47D = tested on: T47D
EKVX = tested on: EKVX
U-251 = tested on: U-251
ACHN = tested on: ACHN
A498 = tested on: A498
IGROV-1 = tested on: IGROV-1

Measured: GI50

O=[N+]([O-])c1ccc(NC(=S)Nc2ccccn2)cc1
inactive: MDA-MB-231 40.3 µM | UACC-257 64.4 µM | MDA-N 91.8 µM | NCI-H23 63.4 µM | UO-31 26.2 µM | SNB-75 18 µM | HCC 2998 > 100 µM | Malme-3M 72.9 µM | SK-MEL-28 > 95.3 µM | HL-60 14 µM | TK-10 31.3 µM | M14 46.8 µM | BT-549 > 92.3 µM | RPMI-8226 > 100 µM | T47D 35.7 µM | EKVX 8.45 µM | U-251 24.3 µM | ACHN 34.1 µM | A498 12.8 µM | IGROV-1 11.9 µM

Cc1c2ccncc2c(C)c2c1sc1ccccc12
inactive: MDA-MB-231 16.5 µM | UACC-257 19.3 µM | MDA-N 13.1 µM | NCI-H23 8.2 µM | SNB-75 14.6 µM | HCC 2998 11.8 µM | Malme-3M 10.8 µM | SK-MEL-28 13.3 µM | HL-60 2.9 µM | TK-10 16.9 µM | M14 11.6 µM | BT-549 16.7 µM | RPMI-8226 6.87 µM | T47D 13.1 µM | EKVX 4.75 µM | U-251 10.8 µM | ACHN 3.85 µM | A498 8.47 µM | IGROV-1 5.94 µM

O=C(/C=C/c1ccc(OCc2ccccc2)cc1)NCc1ccc(C(=O)NCCc2c[nH]c3ccccc23)cc1
inactive: MDA-MB-231 13.8 µM | UACC-257 33 µM | MDA-N > 100 µM | NCI-H23 14.9 µM | UO-31 35 µM | SNB-75 8.3 µM | HCC 2998 43.2 µM | Malme-3M 12.9 µM | SK-MEL-28 74.5 µM | HL-60 6.22 µM | TK-10 9.35 µM | M14 27.8 µM | BT-549 66.1 µM | RPMI-8226 > 100 µM | T47D 30.4 µM | EKVX > 87.1 µM | U-251 4.37 µM | ACHN 36.5 µM | A498 38.9 µM | IGROV-1 15.9 µM

CC(=O)O[C@H]1C[C@H]2[C@@H]([C@H](OC(C)=O)C[C@@H]3CC4(CC[C@@]32C)OOC2(CCCCC2)OO4)[C@@H]2CC[C@H]([C@H](C)CCC(=O)O)[C@@]12C
inactive: MDA-MB-231 14.1 µM | UACC-257 11.4 µM | MDA-N 8.75 µM | NCI-H23 4.13 µM | UO-31 3.28 µM | SNB-75 3.61 µM | HCC 2998 12 µM | Malme-3M 16.4 µM | SK-MEL-28 11.4 µM | HL-60 4.15 µM | TK-10 12.4 µM | M14 12 µM | BT-549 4.24 µM | RPMI-8226 3.46 µM | T47D 7 µM | EKVX 1.95 µM | U-251 4.52 µM | ACHN 7.24 µM | A498 13.3 µM | IGROV-1 1.87 µM

CN(C)Cc1cc(C(=O)/C=C/c2ccc(Cl)cc2)cc(CN(C)C)c1O
inactive: MDA-MB-231 11.4 µM | UACC-257 15.6 µM | MDA-N 10.4 µM | NCI-H23 15.7 µM | UO-31 7.4 µM | SNB-75 8.75 µM | HCC 2998 18.7 µM | Malme-3M 11.7 µM | SK-MEL-28 13.4 µM | HL-60 2.86 µM | TK-10 18.4 µM | BT-549 3.7 µM | RPMI-8226 7.89 µM | T47D 27 µM | EKVX 12.8 µM | U-251 13.4 µM | ACHN 4.04 µM | A498 12.7 µM | IGROV-1 12.5 µM

COC(=O)CC1(O)C=CC(=O)C=C1 [JACARANONE]
inactive: MDA-MB-231 2.66 µM | UACC-257 2.65 µM | MDA-N 6.35 µM | NCI-H23 2.96 µM | UO-31 2.96 µM | SNB-75 5.43 µM | HCC 2998 15.3 µM | Malme-3M 2.81 µM | SK-MEL-28 2.38 µM | HL-60 2.59 µM | TK-10 4.81 µM | M14 4.18 µM | BT-549 5.02 µM | RPMI-8226 5.45 µM | T47D 5.42 µM | EKVX 4.02 µM | U-251 3.52 µM | ACHN 2.99 µM | A498 7.16 µM | IGROV-1 2.02 µM

Source: ChEMBL document CHEMBL1201862, “PubChem BioAssay data set” (2004)
